The nature of this data set: Comparative analysis of solutions at 15 mg/ml in water at pH 7.4 (phosphate buffer). The data set is classed as physicochemical.

This passage reports Appearance of solution results from patent US7683024B2, “Polyaminoacids functionalized by alpha tocopherol and uses thereof, particular for therapeutic applications” (Flamel Technologies, priority 2002, dated 2010).

As to `Cc1c(C)c2c(c(C)c1OC(=O)CCC(=O)O)CC[C@@](C)(CCC[C@H](C)CCC[C@H](C)CCCC(C)C)O2` [α-tocopherol succinate], the Appearance of solution result is recorded as “milky solution”.
